Experimental data: ChEMBL document CHEMBL3507680, “University of Dundee, Gates Library screen for HepG2 cell viability”

Assay: Human HepG2 cell viability assay in 384 well format
Type: toxicity, cell-based
Parameters: dose 125 nL, time 70.5 hour; cytotoxicity at 70.5 h: concentration not given beside the values
Settings: HepG2 cells, read-out: Inhibition

| Structure (SMILES) | cytotoxicity at 70.5 h |
| --- | --- |
| COc1ccc(CN2CC[C@H](c3nc4cccc(C(N)=O)c4[nH]3)C2)cc1 | 3.39% |
| F[C@@H]1CN(CC2CCCCC2)C[C@@H]1OCc1nc2ccccc2o1 | 1.33% |
| CCS(=O)(=O)c1ccc2oc([C@H]3CCN(Cc4ccccn4)C3)nc2c1 | 2.52% |
| CN1CCC(N[C@@H]2CO[C@H](CNC(=O)Nc3ccccc3)[C@H]2O)CC1 | -2.44% |
| O=C(NC[C@H]1OC[C@@H](NC2CCC(F)(F)CC2)[C@@H]1O)c1ccccc1 | -0.0244% |
| O=C1N(C2CCCCC2)C[C@H]2CN(C3CCC3)CCN12 | 9.88% |
| CS(=O)(=O)NC[C@H]1Cn2c(-c3ccc4c(c3)OCCO4)cnc2CO1 | -13.2% |
| CC[C@H]1CN(S(C)(=O)=O)CC[C@H]1CC(=O)NCCSC | -2.51% |
| CC(C)(C)C(=O)N1CC[C@H]2NC(=O)N(c3ccc(F)cc3)C(=O)[C@H]21 | -4.77% |
| O=C1N[C@@H]2CCN(C(=O)C3CC3)[C@@H]2C(=O)N1c1ccc(F)cc1 | -13.5% |
| CC(C)(C)CC(=O)N1CC[C@@H](CC(=O)O)[C@@H](CCN2CCCCC2)C1 | 8.46% |
| O=C1N[C@@H]2CCN(C(=O)N3CCOCC3)[C@@H]2C(=O)N1Cc1ccccc1 | -4.61% |
| CS(=O)(=O)N1CC[C@@H](CC(=O)O)[C@@H](CC2=NCCc3cc(F)ccc32)C1 | -6.32% |
| CC(C)(C)c1cn(C[C@H]2CC3CCN2C[C@@H]3C(=O)NC2CC2)nn1 (some centres not stated) | 10.5% |
| O=C(Nc1ccccc1)[C@H]1CN2CC[C@H]1C[C@@H]2Cn1cc(CCO)nn1 | -3.35% |
| COc1ccc(C(=O)N2CCN3C(=O)CNC(=O)[C@@H]3C2)cc1 | 12.5% |
| COCC(=O)NC[C@H]1C[C@@H]2CCN1C[C@@H]2c1cc(-c2cccs2)nn1C | -7.87% |
| O=C(NC[C@H]1C[C@@H]2CCN1C[C@@H]2CN1CCCCC1)Nc1ccccc1 | -1.01% |
| CN(C)CCN1C(=O)CCCC12CCCN(Cc1ccc[nH]1)C2 (configuration not stated) | 26% |
| O=C(C1CCOCC1)N1C[C@H]2CNC[C@H]2C1 | -1.57% |
| CCS(=O)(=O)N1CCC2(CCN(CC(=O)N(C)C)C2=O)CC1 | -1.33% |
| O=C(NCc1ccccc1)N1C[C@H]2CCN[C@H]2C1 | 26% |
| CC(=O)N1CCC2(CCN(S(=O)(=O)c3ccccc3)CC2)C1 | 22.3% |
| CC(=O)N1CCC2(CC1)CCN(S(=O)(=O)c1ccccc1)C2 | 29.2% |
| CCCS(=O)(=O)N1C[C@H]2C[C@H](C(=O)N3CCOCC3)[C@@H](C1)O2 | -4.21% |
| O=C(CCc1ccccc1)N1C[C@H]2CCN[C@H]2C1 | -7.82% |

| Structure (SMILES) | cytotoxicity at 70.5 h |
| --- | --- |
| O=C(N[C@H]1CC[C@@]2(CCC(=O)N2CC2CC2)CC1)c1cnccn1 | -11% |
| COCCN1C(=O)CC[C@]12CC[C@@H](NC(=O)c1cnccn1)CC2 | -2.82% |
| Cc1cc(C(=O)N2CC[C@@H]3CN(C)S(=O)(=O)[C@@H]3CC2)no1 | -7.25% |
| CC(C)CN1C[C@H]2CCN(C(=O)c3ccccn3)CC[C@H]2S1(=O)=O | -4.38% |
| CCC(=O)N1CCC2(CC1)CC(CC(=O)NC1CC1)c1ccccc1O2 (configuration not stated) | 5.58% |
| O=C(NC1CC1)N1C[C@H]2CN(c3ccccc3)C(=O)[C@H]2C1 | 4.91% |
| CCc1cnc(N2CCC3(CCN(Cc4cccc(C)c4)C3=O)C2)nc1 (configuration not stated) | 1.75% |
| CO[C@@H]1CCN(C(=O)c2cc(C)on2)C[C@@H]1Cc1ccccc1 | 20.3% |
| O=C1CCC2(CCN(Cc3ccsc3)CC2)N1Cc1ccccc1 | -10.3% |
| O=C1[C@H]2CN(C(=O)[C@H]3CCCO3)C[C@H]2CN1CC1CC1 | -5.67% |
| O=C(CCO)N1C[C@H]2CN(c3ccccc3)C(=O)[C@H]2C1 | -8.23% |
| O=C(NCCc1ccccn1)[C@@]12CCO[C@@H]1CCN(CC1CC1)C2 | -5.28% |
| COc1ccc(C[C@H]2CN(C(=O)c3cscn3)CC[C@@H]2OC)cc1 | 49.9% |
| O=C(c1ccoc1)N1CCC2(CC1)C(=O)N(CC1CC1)c1ccccc12 | -2.01% |
| O=C([C@H]1CCCO1)N1CCC2(CC1)C(=O)N(CC1CC1)c1ccccc12 | -1.06% |
| CC(=O)N1CCC2(C1)C(=O)N(CC1CC1)c1ccccc12 (configuration not stated) | -8.89% |
| Cc1cccc(CN2CCc3nnc(CN(C)C)n3CC2)n1 | -10.7% |
| O=C([C@@H]1CCO[C@@H]2CCN(Cc3ccco3)C[C@H]21)N1CCCCO1 | -9.33% |
| CN(C)C(=O)[C@@H]1CCO[C@@H]2CCN(c3ncccn3)C[C@H]21 | -15.3% |
| COCC1CN(Cc2c(C)noc2C)Cc2cn(C)nc21 (configuration not stated) | 10.9% |
| CNC(=O)c1nc2c(s1)CCN(C(=O)c1cccc(OC)c1)CC2 | -10% |
| Cc1nc(CN2CCOC3(CCCN(c4nccs4)C3)C2)cs1 (configuration not stated) | 4.12% |
| CC(=O)NCC(=O)N1Cc2ccnn2CC(COCCN(C)C)C1 (configuration not stated) | -6.24% |
| O=C1N(Cc2ccc(Cl)cc2)CCC12CCCNC2 (configuration not stated) | -12.9% |
| O=C1N(Cc2cccc(Cl)c2)CCC12CCCNC2 (configuration not stated) | -12.1% |
| CCc1ccc(CN2CC[C@@H]3NC(=O)CC[C@@H]32)o1 | 27% |

| Structure (SMILES) | cytotoxicity at 70.5 h |
| --- | --- |
| O=C(C1CC1)N1CCC2(CCN2Cc2ccc(F)cc2)C1 (configuration not stated) | -0.516% |
| Cc1nc(CN2C[C@@H]3CN(C(=O)c4cccn4C)C[C@@H]3C2)cs1 | -6.14% |
| CCN1C(=O)CC(c2ccccc2)C12CCN(CC1CCOCC1)CC2 (configuration not stated) | -8.46% |
| COc1ccc(C[C@H]2CNCC[C@@H]2OC)cc1 | -5.86% |
| CC(C)NC(=O)N1CC[C@H]2[C@H]1CCN2c1ncccn1 | -5.58% |
| Cc1ccc(CN2C[C@@H]3CN(C(=O)c4cccn4C)C[C@@H]3C2)cc1 | -3.66% |
| CNC(=O)N1CC[C@H]2N(C)CC[C@@]2(C(=O)N2CCOCC2)CC1 | -4.42% |
| O=C(CC1CCCC1)N1CCC2(CCN2Cc2ccc(F)cc2)C1 (configuration not stated) | 1.62% |
| O=C1Nc2ccccc2C12CCN(Cc1nccs1)CC2 | -1.05% |
| COc1ccc(C[C@H]2CNCC[C@H]2OC)cc1 | -6.44% |
| CCN1C[C@H]2[C@@H](C1)N(C(=O)Cc1ccsc1)CC[C@H]2OC | -7.9% |
| CS(=O)(=O)N1CC2(CCN(C(=O)c3ccncc3)CC2)c2ccccc21 | -6.91% |
| COCCN1CCC2(CC1)CC(NC(=O)COC)c1ccccc1O2 (configuration not stated) | -7.59% |
| CC(C)NC(=O)N1CCC2(CCC(=O)N2CCN2CCCC2)CC1 | -9.28% |
| Cc1cccc(CN2CC[C@H]3[C@@H]2CC(=O)N3CC2CC2)n1 | -9.45% |
| COCCN1CCC2(CC1)CC(NC(=O)C(C)C)c1ccccc1O2 (configuration not stated) | -4.05% |
| Cc1cnc(N2CCC3(CCCN3C(=O)c3ccco3)CC2)nc1 | -2.74% |
| Cc1cccc(CN2CCC3(CCN(c4ncccn4)CC3)C2=O)c1 | 1.2% |
| CN(C)CC(=O)N1CC2(CCN(C(=O)Nc3ccccc3)C2)C1 | 22.9% |
| O=C(c1ccco1)N1CCCC12CCN(c1ncccn1)CC2 | -7.14% |
| COc1ccc(C[C@H]2CN(C(=O)c3ccc(C)nc3)CC[C@@H]2OC)cc1 | -2.92% |
| COCCN1CCCC2(CCC(=O)N2Cc2cccnc2)C1 (configuration not stated) | 28.9% |
| Cc1cccc(CN2C[C@@H]3CN(C(=O)c4cnccn4)C[C@@H]3C2=O)n1 | -0.986% |
| Cc1cccc(CN2CCCn3c(nnc3CN3CCCC3=O)C2)n1 | -9.11% |
| COc1ccc(CN2CCC3(CC2)CCN(CC(=O)N(C)C)C3=O)cc1 | -16.7% |
| O=C(O)[C@]12CCCN(Cc3cccs3)C[C@H]1CN(c1ncccn1)C2 | -9.42% |

| Structure (SMILES) | cytotoxicity at 70.5 h |
| --- | --- |
| Cc1ccc(CN2CCO[C@@H]3C[C@@H](C(=O)NC(C)C)C[C@H]32)o1 | -8.04% |
| CC(C)NC(=O)[C@H]1C[C@@H]2[C@@H](C1)OCCN2Cc1ccco1 | -8.12% |
| COc1ccc(CN2CCO[C@@H]3C[C@@H](C(=O)NC(C)C)C[C@H]32)cc1 | -5.46% |
| O=C(O)[C@]12CCCN(Cc3ccoc3)C[C@H]1CN(c1ncccn1)C2 | -6.33% |
| O=C1NC(c2ccccc2)=N[C@@]12CC[C@@H]1CN(CC3CC3)C[C@@H]12 | -10.6% |
| Cc1ccc(CN2CCc3ncnc(OC(C)C)c3CC2)s1 | -6.82% |
| CC(C)NC(=O)[C@H]1C[C@@H]2[C@@H](C1)OCCN2Cc1nccs1 | -4.27% |
| O=C(C1=CCCC1)N1CCC[C@]2(C[C@@H](OCc3ccccn3)CO2)C1 | -15.2% |
| COc1ccc(CN2CCn3cc(CNC(=O)C4CCC4)nc3C2)cc1 | 7.38% |
| Cn1nnc2c1CCN(C(=O)C1CC1)C2COCCN1CCCC1 (configuration not stated) | -3.87% |
| Cc1ccc(CN2CCn3c(CNC(=O)c4cccn4C)cnc3C2)s1 | -10.3% |
| Cc1noc(C)c1CN1CCCC2(C1)CN(c1nccs1)CCO2 (configuration not stated) | -2.38% |
| Cc1ccc(CN2C[C@@H]3CCCO[C@@H]3[C@H](NS(C)(=O)=O)C2)o1 | -9.45% |
| Cc1noc(C)c1CN1CCOC2(CCCN(c3nncs3)C2)C1 (configuration not stated) | -4.97% |
| Cc1cccc(CN2CCCCC23CCNC3)n1 (configuration not stated) | -8.16% |
| O=C(c1n[nH]c2c1CN(C1CCOCC1)CC2)N1CCCC1 | -6.32% |
| O=C(NCCc1ccccn1)[C@@]12CCO[C@@H]1CCN(C1CCC1)C2 | -6.9% |
| CN(C)C1COC2(CCN(Cc3ccc4c(c3)OCO4)CC2)C1 (configuration not stated) | 2.59% |
| Cc1cccc(CN2CCc3nnc(CN4CCCCC4)n3CC2)n1 | -5.9% |
| Cc1ccc(CN2CCCC3(COCCN(Cc4c[nH]nn4)C3)C2)s1 (configuration not stated) | 19.3% |
| COCC(=O)N1Cc2ccnn2CC(COCCN(C)C)C1 (configuration not stated) | -3.25% |
| Cn1cc(CN2CCCC3(COCCN(Cc4c[nH]nn4)C3)C2)cn1 (configuration not stated) | 0.634% |
| CN1CCN(Cc2cccnc2)C(=O)C12CCN(Cc1ccco1)CC2 | -8.43% |
| c1cncc(C[C@H]2[C@H](N3CCOCC3)CCN2Cc2cccs2)c1 | -5.01% |
